Structures can show the parent of a compound that is named as a salt.

With `Cc1cc(-c2cc(C(F)(F)F)nn2-c2ccc(S(N)(=O)=O)c(F)c2)ccc1-c1ccco1` [Example 139, 2-Fluoro-4-[5-[4-(2-furyl)-3-methylphenyl]-3-(trifluoromethyl)-1H-pyrazol-1-yl]benzenesulfonamide], the melting point lay in the range of 78 to 80 °C. With `NS(=O)(=O)c1ccc(-n2nc(C(F)(F)F)cc2-c2ccc(-c3ccco3)cc2)cc1F` (as salt: hydrochloride) [Example 137, 2-Fluoro-4-[5-[4-(2-furyl)phenyl]-3-(trifluoromethyl)-1H-pyrazol-1-yl]benzenesulfonamide], the melting point came to 151 °C.

With `CS(=O)(=O)c1ccc(-n2nc(C(F)(F)F)cc2-c2ccc(-c3ncco3)cc2)cc1F` [Example 96, 2-{4-[1-[3-Fluoro-4-(methylsulfonyl)phenyl]-3-(trifluoromethyl)-1H-pyrazol-5-yl]phenyl}-1,3-oxazole], the melting point lay within 140 to 142 °C. The same measure for `Cc1cc(-n2c(C)ccc2-c2ccc(S(C)(=O)=O)cc2)ccc1-c1ccco1` [Example 40, 1-[4-(2-Furyl)-3-methylphenyl]-2-methyl-5-[4-(methylsulfonyl)phenyl]-1H-pyrrole]: 160 to 162 °C. In the case of `Cc1cc(-n2nc(C(F)(F)F)cc2-c2ccc(-c3cscn3)cc2)ccc1S(C)(=O)=O` (as salt: hydrochloride) [Example 101, 4-{4-[1-[3-Methyl-4-(methylsulfonyl)phenyl]-3-(trifluoromethyl)-1H-pyrazol-5-yl]phenyl}-1,3-thiazole] it was 147 to 149 °C.

Take `CC1(C)OC(=O)C(c2ccc(-c3cscn3)cc2)=C1c1ccc(S(C)(=O)=O)cc1` [Example 166, 5,5-Dimethyl-4-[4-(methylsulfonyl)phenyl]-3-[4-(1,3-thiazol-4-yl)phenyl]-2(5H)-furanone]: the melting point was determined as 215.8 °C. The same measure for `CS(=O)(=O)c1ccc(-n2nc(C(F)(F)F)cc2-c2ccc(-c3cscn3)cc2)cc1Cl` [Example 158, 1-[3-Chloro-4-(methylsulfonyl)phenyl]-5-[4-(4-thiazolyl)phenyl]-3-trifluoromethyl-1H-pyrazole]: 103 to 107 °C. In the case of `Cc1cc(-c2ccc(-c3ccco3)cc2)n(-c2ccc(S(C)(=O)=O)cc2)c1` [Example 59, 2-[4-(2-Furyl)phenyl]-4-methyl-1-[4-(methylsulfonyl)phenyl]-1H-pyrrole] it was 193 to 194 °C; in that of `Cc1cc(-c2ccco2)ccc1-c1cc(C(F)(F)F)nn1-c1ccc(S(C)(=O)=O)cc1` (as salt: hydrochloride) [Example 78, 1-[4-(Methylsulfonyl)phenyl]-5-[4-(2-furyl)-2-methylphenyl]-3-(trifluoromethyl)-1H-pyrazole], 175 to 177 °C.

As for `NS(=O)(=O)c1ccc(-n2nc(C(F)(F)F)cc2-c2ccc(-c3cscn3)c(C(F)(F)F)c2)cc1F` [Example 176, 2-Fluoro-4-[5-[4-(1,3-thiazol-4-yl)-3-(trifluoromethyl)phenyl]-3-(trifluoromethyl)-1H-pyrazol-1-yl]benzenesulfonamide], the melting point is 140 to 142 °C.

`Cc1onc(-c2ccc(S(C)(=O)=O)cc2)c1-c1ccc(-c2cscn2)cc1` [Example 189, 5-Methyl-3-[4-(methylsulfonyl)phenyl]-4-[4-(1,3-thiazol-4-yl)phenyl]isoxazole] gave a melting point of 159 °C. As for `Cc1cc(-c2cc(C(F)(F)F)nn2-c2ccc(S(N)(=O)=O)c(F)c2)ccc1-c1cscn1` (as salt: hydrochloride) [Example 113, 2-Fluoro-4-[5-[3-methyl-4-(1,3-thiazol-4-yl)phenyl]-3-(trifluoromethyl)-1H-pyrazol-1-yl]benzenesulfonamide], the melting point was in the range of 125 to 127 °C. `Cc1ccc(-c2ccc(S(C)(=O)=O)cc2)n1-c1ccc(-c2ccoc2)c(Cl)c1` [Example 41, 1-[3-Chloro-4-(3-furyl)phenyl]-2-methyl-5-[4-(methylsulfonyl)phenyl]-1H-pyrrole] had a melting point of 165 to 168 °C. In the case of `Cc1cc(-c2ccnn2-c2ccc(S(N)(=O)=O)c(F)c2C(F)F)ccc1-c1cscn1` (as salt: hydrochloride) [Example 195, 3-(Difluoromethyl)-2-fluoro-4-[5-[3-methyl-4-(1,3-thiazol-4-yl)phenyl]-1H-pyrazol-1-yl]benzenesulfonamide] it was 204.3 °C; in that of `COc1cc(-c2cc(C(F)(F)F)nn2-c2ccc(S(C)(=O)=O)cc2)ccc1-c1cocn1` (as salt: hydrochloride) [Example 111, 4-{2-Methoxy-4-[1-[4-(methylsulfonyl)phenyl]-3-(trifluoromethyl)-1H-pyrazol-5-yl]phenyl}-1,3-oxazole], 171 to 173 °C.

`CS(=O)(=O)c1ccc(-n2nc(C(=O)N3CCOCC3)cc2-c2ccc(-c3ccco3)cc2)cc1F` [Example 130, 1-[3-Fluoro-4-(methylsulfonyl)phenyl]-5-[4-(2-furyl)phenyl]-3-(4-morpholinecarbonyl)-1H-pyrazole] displayed a melting point of 221 to 222 °C. The same measure for `Cc1nc(-c2ccc(-c3ccco3)cc2)c(-c2ccc(S(C)(=O)=O)cc2)o1` [Example 51, 4-[4-(2-Furyl)phenyl]-2-methyl-5-[4-(methylsulfonyl)phenyl]oxazole]: 143 to 144 °C; for `CS(=O)(=O)c1ccc(-n2nc(C(F)(F)F)cc2-c2ccc(-c3cscn3)cc2)cc1F` [Example 99, 4-{4-[1-[3-Fluoro-4-(methylsulfonyl)phenyl]-3-(trifluoromethyl)-1H-pyrazol-5-yl]phenyl}-1,3-thiazole]: 125 to 127 °C. The same measure for `COC(=O)c1cc(-c2ccc(-c3nccs3)cc2)n(-c2ccc(S(N)(=O)=O)cc2)n1` [Example 88, Methyl 1-(4-sulfamoylphenyl)-5-[4-(2-thiazolyl)phenyl]-1H-pyrazole-3-carboxylate]: 204 to 206 °C; for `NS(=O)(=O)c1ccc(-n2nc(C(F)(F)F)cc2-c2ccc(-c3ccco3)cc2)cc1Cl` (as salt: hydrochloride) [Example 144, 2-Chloro-4-[5-[4-(2-furyl)phenyl]-3-(trifluoromethyl)-1H-pyrazol-1-yl]benzenesulfonamide]: 192.6 °C; for `Cc1nc(-c2ccc(-c3cccs3)cc2)c(-c2ccc(S(C)(=O)=O)cc2)o1` [Example 50, 2-Methyl-5-[4-(methylsulfonyl)phenyl]-4-[4-(2-thienyl)phenyl]oxazole]: 183 to 185 °C.

Consider `Cc1cc(-c2ccc(S(C)(=O)=O)cc2)n(-c2ccc(-c3ccoc3)cc2)c1` [Example 55, 1-[4-(3-Furyl)phenyl]-4-methyl-2-[4-(methylsulfonyl)phenyl]-1H-pyrrole], for which the melting point lay within 154 to 156 °C. `Cc1cc(-c2cc(C(F)(F)F)nn2-c2ccc(S(N)(=O)=O)cc2)ccc1-c1cocn1` (as salt: hydrochloride) [Example 116, 4-[5-[3-Methyl-4-(1,3-oxazol-4-yl)phenyl]-3-(trifluoromethyl)-1H-pyrazol-1-yl]benzenesulfonamide] registered a melting point of 112 to 114 °C. In the case of `Cc1cc(-c2cc(C(F)F)nn2-c2ccc(S(C)(=O)=O)c(F)c2)ccc1-c1cscn1` [Example 194, 4-[4-[3-(Difluoromethyl)-1-[3-Fluoro-4-(methylsulfonyl)phenyl]-1H-pyrazol-5-yl]-2-methylphenyl]-1,3-thiazole] it was 122.9 °C; in that of `NS(=O)(=O)c1ccc(-n2nc(C(F)(F)F)cc2-c2ccc(-c3cscn3)cc2)cc1F` (as salt: hydrochloride) [Example 103, 2-Fluoro-4-[5-[4-(1,3-thiazol-4-yl)phenyl]-3-(trifluoromethyl)-1H-pyrazol-1-yl]benzenesulfonamide], 168 to 170 °C; in that of `NS(=O)(=O)c1ccc(-n2nc(C(F)(F)F)cc2-c2ccc(-c3ccco3)cc2)c(Cl)c1` (as salt: hydrochloride) [Example 140, 3-Chloro-4-[5-[4-(2-furyl)phenyl]-3-(trifluoromethyl)-1H-pyrazol-1-yl]benzenesulfonamide], 190.3 °C.

As to `CS(=O)(=O)c1ccc(-n2nc(C(F)(F)F)cc2-c2ccc(-c3ccco3)cc2)cc1F` [Example 60, 1-[3-Fluoro-4-(methylsulfonyl)phenyl]-5-[4-(2-furyl)phenyl]-3-(trifluoromethyl)-1H-pyrazole], the melting point fell in the range of 129 to 130 °C. In the case of `NS(=O)(=O)c1ccc(C2=C(c3ccc(-c4cscn4)cc3)C(=O)OC2)cc1F` [Example 167, 2-Fluoro-4-[5-oxo-4-[4-(1,3-thiazol-4-yl)phenyl]-2,5-dihydro-3-furanyl]benzenesulfonamide] it was 194.2 °C. `CS(=O)(=O)c1ccc(-n2nc(C(F)(F)F)cc2-c2ccc(-c3nccs3)cc2)cc1` [Example 22, 1-[4-(Methylsulfonyl)phenyl]-5-[4-(2-thiazolyl)phenyl]-3-trifluoromethyl-1H-pyrazole] yielded a melting point of 206 to 207 °C.

As to `Cc1ccc(-c2ccc(S(C)(=O)=O)cc2)n1-c1ccc(-c2nccs2)cc1` [Example 49, 2-Methyl-5-[4-(methylsulfonyl)phenyl]-1-[4-(2-thiazolyl)phenyl]-1H-pyrrole], the melting point fell in the range of 190 to 191 °C. On to `Cc1cc(-c2cscn2)ccc1-c1cc(C(F)(F)F)nn1-c1ccc(S(C)(=O)=O)cc1` (as salt: methanesulfonate) [Example 186, 1-[4-(Methylsulfonyl)phenyl]-5-[2-methyl-4-(4-thiazolyl)phenyl]-3-trifluoromethyl-1H-pyrazole], for which the melting point stood at 174.7 °C.

In the case of `Cc1onc(-c2ccc(-c3cscn3)cc2)c1-c1ccc(S(N)(=O)=O)cc1` [Example 171, 4-{5-Methyl-3-[4-(1,3-thiazol-4-yl)phenyl]-4-isoxazolyl}benzenesulfonamide], the melting point was 112 to 115 °C. As for `CS(=O)(=O)c1ccc(-n2cc(C(F)(F)F)nc2-c2ccc(-c3cccs3)cc2)cc1` [Example 52, 1-[4-(Methylsulfonyl)phenyl]-2-[4-(2-thienyl)phenyl]-4-(trifluoromethyl)-1H-imidazole], the melting point is 95 to 97 °C.

As usually defined, the melting point is the temperature, or range, at which the solid turns liquid.
